Tests used:
pyoverdin = experiment: Pyoverdin production (supernatant fluorescence); assay type: cell-based, Pseudomonas aeruginosa; details: PAO1 grown with 40 μg/ml of sample
Text: Pyoverdins function as siderophores essentially starving host tissues by competing with mammalian transferrin for iron. They also promote pathogenicity by stimulating bacterial growth (Cox & Adams, 1985), while auto-regulating themselves and the production of other toxins. Relative concentration of pyoverdin was based on fluorescence of the supernatant at an excitation wavelength of 405 nm and an emission wavelength of 465 nm (Gemini EM microplate reader). […] This is consistent with our previous data on C. erectus (Adonizio et al., 2008b).

[1] = system: P. aeruginosa PAO1-derived biomonitor strains pPCS 1001 and pPCS 1002; experiment: Anti-QS agar well bioassay with lacZ biomonitor strains; assay type: cell-based, Pseudomonas aeruginosa; details: 10 μl aliquot per well
Experimental: These strains harbor lacZ fusions to the QS gene promoter regions enabling blue/white selection for QS activity. […] Briefly, LB agar plates were seeded with a lawn of one of the biomonitor strains and allowed to dry for 1 hour. Small wells were then cut and aspirated from the agar, and 10 μl aliquots of each fraction were pipetted into each well. Wells were checked at 18 h and 24 h for zones of QS inhibition.
Each fraction was pipetted into a small well in an agar plate seeded with one of these biomonitor strains and the appropriate reagents for visualization of lacZ activity.

LasA protease = experiment: LasA staphylolytic assay of culture supernatants; assay type: cell-based, Pseudomonas aeruginosa; details: for LasA Activity: PAO1 grown with 40 μg/ml of sample; for decrease in LasA activity compared to control: crude extract printed 40 pg/ml, purified compounds 40 μg/ml
Experimental: LasA belongs to the p-lytic endopeptidase class of proteases (Kessler, 1995) and plays a major role in host tissue degradation (Kharazmi, 1989; Morihara & Homma, 1985). LasA protease activity was determined by measuring the ability of culture supernatants to lyse boiled S. aureus cells (Kong et al., Int. J. Med. Microbiol., 296:133-139, 2006). There was a significant decrease in LasA activity compared to that of the control when strain PAO1 was grown in the presence of C. erectus crude extract at 1 mg/ml (91% decrease), and a lesser effect at […] (26% decrease) (Table 1). Purified vescalagin and castalagin affected significant reductions in LasA activity as well, with decreases of 73% and 80%, respectively (Table 1).

lasR = details: 40 μg/ml of sample
Experimental: (§1) Samples were tested at the following concentrations: 1 mg/ml crude extract of C. erectus, 40 μg/ml crude extract, 40 μg/ml vescalagin, or 40 μg/ml castalagin. These additions were compared to a media-only control for the reduction of QS.

rhlR = details: 40 μg/ml of sample
Experimental: as §1

rhlI = details: 40 μg/ml of sample
Experimental: as §1

[2] = system: QS genes (lasI, lasR, rhlI, rhlR); experiment: QS gene expression, summary over all tested QS genes; assay type: cell-based, Pseudomonas aeruginosa; details: 40 μg/ml
Experimental: as §1

C12-AHL (OdDHL) = experiment: AHL production, C12-AHL; assay type: cell-based, Pseudomonas aeruginosa; details: 40 μg/ml of sample
Text: (§2) P. aeruginosa manufactures two main QS signaling molecules N-(3-oxododecanoyl)-L-homoserine lactone (OdDHL) and N-butanoyl-L-homoserine lactone (BHL) called autoinducers (Pearson et al., Proc. Natl. Acad. Sci. USA, 92:1490-1494, 1994). These molecules diffuse into the environment, and when they reach a putative threshold concentration, they activate the QS receptor genes.

LasB elastase = experiment: LasB elastolytic activity of culture supernatants (elastin Congo red); assay type: cell-based, Pseudomonas aeruginosa; details: for decrease in LasB activity compared to control: 40 ug/ml; for Elastase Activity: PAO1 grown with 40 μg/ml of sample
Experimental: LasB elastase is a zinc metalloprotease capable of affecting the host immune system and destroying biological tissue (Bever & Iglewski, 1988). The elastolytic activity of culture supernatants was determined using elastin Congo red (ECR; Sigma, St. Louis, Mo.) (Ohman et al., 1980). There was a significant decrease in LasB activity compared to that of the control when PAO1 was grown in the presence of C. erectus at 1 mg/ml (70% decrease) or 40 ug/ml (60% decrease) (Table 1). Purified vescalagin and castalagin also affected significant reductions in LasB activity, with decreases of 67% and 63%, respectively (Table 1).

C4-AHL (BHL) = experiment: AHL production, C4-AHL; assay type: cell-based, Pseudomonas aeruginosa; details: for AHL production C4-AHL: 40 μg/ml of sample
Text: as §2

lasI = experiment: QS gene expression, promoter-lacZ fusion β-galactosidase assay, lasI; assay type: cell-based, Pseudomonas aeruginosa; details: 40 μg/ml of sample
Experimental: as §1

P. putida = details: concentrations up to 30 μg/ml; cited from earlier work
LasB = details: P. putida grown in the presence of 30 μg/ml; cited from earlier work

For `O=C1OC[C@H]2OC(=O)c3cc(O)c(O)c(O)c3-c3c(O)c(O)c(O)c4c3C(=O)O[C@H]([C@H]3OC(=O)c5c-4c(O)c(O)c(O)c5[C@H]3O)[C@@H]2OC(=O)c2cc(O)c(O)c(O)c2-c2c1cc(O)c(O)c2O` [Castalagin, castalagin], the Pyoverdin production (pyoverdin) was 4207 ± 150 fluorescence (405/465 nm) per μg of protein, the “anti-QS activity of HPLC fractions of Fraction A” value [1] was “activity” and the “LasA Activity” value (LasA protease) was 0.048 ± 0.003 reduction in OD600/hour per μg total protein. The “decrease in LasA activity compared to control” value (LasA protease) was 80%, the “Gene Expression (measured via β-galactosidase activity of the lacZ fusion products) lasR” value (lasR) was 2160 ± 509 Milller Units and the “Gene Expression (measured via β-galactosidase activity of the lacZ fusion products) rhlR” value (rhlR) was 4904 ± 348 Milller Units. For the same molecule, the “Gene Expression (measured via β-galactosidase activity of the lacZ fusion products) rhll” value (rhlI) was 4542 ± 199 Milller Units, the “effect on expression of QS genes” value [2] was “reduced all QS gene levels save for rhlI” and the “AHL production C12-AHL” value (C12-AHL (OdDHL)) was 1.389 ± 0.20 µM. For the same molecule, the “decrease in LasB activity compared to control” value (LasB elastase) was 63%, the “Elastase Activity” value (LasB elastase) was 52.7 ± 9.0 absorbance at OD495 per μg of protein × 1000 and the “AHL production C4-AHL” value (C4-AHL (BHL)) was 0.703 ± 0.01 µM. For the same molecule, the “Gene Expression (measured via β-galactosidase activity of the lacZ fusion products) las1” value (lasI) was 2465 ± 116 Milller Units.

In the case of `O=C1OCC2OC(=O)c3cc(O)c(O)c(O)c3-c3c(O)c(O)c(O)c4c3C(=O)OC(C2OC(=O)c2cc(O)c(O)c(O)c2-c2c1cc(O)c(O)c2O)C1OC(=O)c2c-4c(O)c(O)c(O)c2C1O` (centres unmarked) [Vescalagin, vescalagin], the Pyoverdin production (pyoverdin) was 4226 ± 138 fluorescence (405/465 nm) per μg of protein, the “anti-QS activity of HPLC fractions of Fraction A” value [1] was “activity” and the “LasA Activity” value (LasA protease) was 0.066 ± 0.008 reduction in OD600/hour per μg total protein. The “decrease in LasA activity compared to control” value (LasA protease) was 73%, the “Gene Expression (measured via β-galactosidase activity of the lacZ fusion products) lasR” value (lasR) was 1703 ± 297 Milller Units and the “Gene Expression (measured via β-galactosidase activity of the lacZ fusion products) rhlR” value (rhlR) was 4129 ± 287 Milller Units. The “Gene Expression (measured via β-galactosidase activity of the lacZ fusion products) rhll” value (rhlI) was 3514 ± 306 Milller Units, the “effect on expression of QS genes” value [2] was “reduced all QS gene levels including rhlI to a greater extent than castalagin” and the “AHL production C12-AHL” value (C12-AHL (OdDHL)) was 1.227 ± 0.16 µM. For the same molecule, the “decrease in LasB activity compared to control” value (LasB elastase) was 67%, the “Elastase Activity” value (LasB elastase) was 47.2 ± 6.8 absorbance at OD495 per μg of protein × 1000 and the “AHL production C4-AHL” value (C4-AHL (BHL)) was 0.489 ± 0.01 µM. The “reduction of BHL levels” value (C4-AHL (BHL); purified compound, 40 μg/ml) was 21% and the “Gene Expression (measured via β-galactosidase activity of the lacZ fusion products) las1” value (lasI) was 2049 ± 93 Milller Units.

In the case of `O=c1oc2c(O)c(O)cc3c(=O)oc4c(O)c(O)cc1c4c23` [ellagic acid], the effect on growth (P. putida) is given as “no effect” and the “decrease in LasB activity” value (LasB) is given as 40%.

From patent US20130317094A1, “USE OF ELLAGITANNINS AS INHIBITORS OF BACTERIAL QUORUM SENSING” (priority 2008, published 2013)
